Experimental findings from patent US8546377B2 (AbbVie Inc., priority 2009, dated 2013) are described below.

Molecules are shown by their SMILES. Like-named read-outs stand apart in the source and are kept apart here. A value given as a limit tells only on which side of the number the result lay.

Experiment [1] has as its target T1, 5HT2B receptors (Homo sapiens, UniProt P41595).
T1 construct: expressed in transfected cells; host or cells: CHO-K1 cells
As to the kind of experiment: Human 5-HT2B functional assay in CHO-K1 cells (calcium flux, FLIPR). The format is cell-based. The procedure, abridged:
(§1)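 EC50 came from a 4-parameter logistic fit, with Emax expressed relative to serotonin, of intracellular Ca2+ rises read on FLIPR at 480/530 nm, 25° C, over 3 min. Compounds ran from 10 μM in six 1:10 steps (0.2% DMSO) on serum-starved CHO-K1 transfectants pre-loaded 60 min with Ca4 dye and probenecid.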
(Calcium assays in cells follow changes in intracellular calcium, usually with a dye or a luminescent sensor.)

Experiment [2] deals with T2, 5HT2C receptors (Homo sapiens, UniProt P28335).
T2 sequence (P28335 33-458): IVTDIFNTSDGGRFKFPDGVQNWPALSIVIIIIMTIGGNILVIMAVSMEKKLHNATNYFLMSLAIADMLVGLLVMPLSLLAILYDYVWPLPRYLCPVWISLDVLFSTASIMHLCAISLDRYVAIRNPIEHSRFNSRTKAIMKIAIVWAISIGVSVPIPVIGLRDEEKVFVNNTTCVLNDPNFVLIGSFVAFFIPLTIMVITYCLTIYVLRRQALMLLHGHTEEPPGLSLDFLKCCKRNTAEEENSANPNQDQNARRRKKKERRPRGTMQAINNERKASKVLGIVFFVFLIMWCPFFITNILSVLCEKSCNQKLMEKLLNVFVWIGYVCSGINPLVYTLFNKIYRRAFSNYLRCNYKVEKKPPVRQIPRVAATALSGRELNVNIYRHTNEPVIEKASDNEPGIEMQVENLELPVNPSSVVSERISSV
As to the kind of experiment: Human 5-HT2C functional assay in CHO-K1 cells (calcium flux, FLIPR). Also on record: expressed in transfected cells; host or cells: CHO-K1 cells. Format: cell-based. The method, boiled down: as §1

[3] abbreviates: CHO-K1, read-out: Emax (%), 5-HT2B Agonist Activity.
Where [4] appears, read: CHO-K1, read-out: Emax (%), 5-HT2c Agonist Activity, CHO-K1 cells, percentage relative to the effect of serotonin.
The mark [5] stands for this setting: CHO-K1 cells over-expressing 5HT2B, calcium flux, read-out: EC50 (μM), 5-HT2B Agonist Activity.
Where [6] appears, read: CHO-K1 cells over-expressing 5HT2C, calcium flux, read-out: EC50 (μM), 5-HT2c Agonist Activity.
Where [7] appears, read: CHO-K1 cells, percentage relative to the effect of serotonin, read-out: Emax (%), 5-HT2c Agonist Activity.
Setting [8] is: CHO-K1 cells, percentage relative to the effect of serotonin, read-out: Emax (%), 5-HT2B Agonist Activity.

T1 sequence (P41595 whole entry): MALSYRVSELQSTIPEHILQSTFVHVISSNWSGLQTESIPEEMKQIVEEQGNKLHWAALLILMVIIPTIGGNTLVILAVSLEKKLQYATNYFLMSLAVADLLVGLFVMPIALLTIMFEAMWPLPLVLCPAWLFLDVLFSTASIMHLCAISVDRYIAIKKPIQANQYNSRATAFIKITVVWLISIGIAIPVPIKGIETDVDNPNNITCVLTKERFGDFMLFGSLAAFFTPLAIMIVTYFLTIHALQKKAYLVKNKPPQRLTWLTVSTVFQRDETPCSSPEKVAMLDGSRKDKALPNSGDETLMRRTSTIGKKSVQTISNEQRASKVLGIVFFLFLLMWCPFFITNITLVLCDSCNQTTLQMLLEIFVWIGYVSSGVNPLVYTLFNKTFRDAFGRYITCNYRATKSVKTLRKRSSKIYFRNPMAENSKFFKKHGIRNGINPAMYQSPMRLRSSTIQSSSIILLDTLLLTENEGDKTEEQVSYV

By EC50 is commonly meant the concentration at which the effect is half-maximal. One may read the Emax as the greatest response seen or fitted, relative to the assay's reference. Take `Clc1ccc2c(c1)N1CCNC[C@@H]1CCO2` [Example 140, (4aS)-10-chloro-2,3,4,4a,5,6-hexahydro-1H-pyrazino[2,1-d][1,5]-benzoxazepine]: the 50% effective concentration (EC50) came to 0.03 µM in experiment [1] and 0.0005 µM in experiment [2]. Moreover, the Emax was 60% in experiment [1] (setting [3]) and over 120% in experiment [2] (setting [4]).

In the case of `c1cc(-c2ccc3c(c2)N2CCNC[C@@H]2CCO3)ccn1` [Example 207, (4aS)-10-(pyridin-4-yl)-2,3,4,4a,5,6-hexahydro-1H-pyrazino[2,1-d][1,5]benzoxazepine], the EC50 in experiment [1] (setting [5]) was over 10 µM; in experiment [2] (setting [6]), 0.8 µM. Also, in experiment [2] (setting [4]), the Emax is over 120%.

On to `Clc1cc(Cl)c2c(c1)N1CCNC[C@@H]1CCO2` [Example 225, (4aS)-8,10-dichloro-2,3,4,4a,5,6-hexahydro-1H-pyrazino[2,1-d][1,5]benzoxazepine], for which the EC50 was determined as 0.04 µM in experiment [1] and 0.01 µM in experiment [2]. Moreover, the Emax in experiment [1] (setting [3]) was determined as 50%; in experiment [2] (setting [4]), 70%.

In the case of `CCN1CCC2CN(C)CCN2c2ccc(Cl)cc21` (stereo not shown) [Example 82, 9-chloro-7-ethyl-3-methyl-1,2,3,4,4a,5,6,7-octahydropyrazino[1,2-a][1,5]benzodiazepine], the EC50 was over 10 µM in experiment [1] (setting [5]) and 0.6 µM in experiment [2] (setting [6]). For the same compound, in experiment [2] (setting [7]), the Emax worked out at 90%.

On to `[2H]c1ccc2c(c1)OCC[C@H]1CNCCN21` [Example 263, (4aS)-(9-^2H)-2,3,4,4a,5,6-hexahydro-1H-pyrazino[2,1-d][1,5]benzoxazepine], for which the EC50 in experiment [1] was 0.09 µM; in experiment [2], 0.003 µM. For the same compound, the Emax in experiment [1] (setting [3]) stood at 15%; in experiment [2] (setting [4]), 95%.

On to `Fc1ccccc1-c1ccc2c(c1)N1CCNC[C@@H]1CCO2` [Example 203, (4aS)-10-(2-fluorophenyl)-2,3,4,4a,5,6-hexahydro-1H-pyrazino[2,1-d][1,5]-benzoxazepine], for which the EC50 was determined as 2 µM in experiment [1] (setting [5]) and 0.02 µM in experiment [2] (setting [6]). The values for the Emax in experiment [1] (setting [8]) and in experiment [2] (setting [7]) were 15% and over 120%, respectively.

As for `C[C@@H]1C[C@H]2CNCCN2c2ccccc2O1` (single isomer, unassigned) [Example 252], the EC50 in experiment [1] amounted to 0.06 µM; in experiment [2], 0.006 µM. For the same compound, the Emax came out at 40% in experiment [1] (setting [3]) and 105% in experiment [2] (setting [4]).

Turning to `CN1CCN2c3ccccc3CCCC2C1` (stereo not shown) [Example 183, 3-methyl-1,2,3,4,4a,5,6,7-octahydropyrazino[1,2-a][1]benzazepine], the EC50 in experiment [1] was over 10 µM; in experiment [2], 0.003 µM. For the same compound, the maximum response (Emax) in experiment [2] (setting [4]) is over 120%.

On to `CCN1C(=O)CC2CNCCN2c2ccc(Cl)cc21` (stereo not shown) [Example 77, 9-chloro-7-ethyl-1,2,3,4,4a,5-hexahydropyrazino[1,2-a][1,5]-benzodiazepin-6(7H)-one], for which the half-maximal effective concentration (EC50) in experiment [1] (setting [5]) was over 10 µM; in experiment [2] (setting [6]) it was 0.2 µM. Also, in experiment [2] (setting [7]), the Emax stood at 100%.

Regarding `CC(O)c1cccc(-c2cccc3c2OCC[C@H]2CNCCN32)c1` (stereo partly drawn) [Example 233, 1-{3-[(4aS)-2,3,4,4a,5,6-hexahydro-1H-pyrazino[2,1-d][1,5]benzoxazepin-8-yl]phenyl}ethanol], the figures for the EC50 in experiment [1] (setting [5]) and in experiment [2] (setting [6]) were over 10 µM and 0.003 µM, respectively. In experiment [2] (setting [7]), the Emax was 105%.

For `CS(=O)(=O)c1cccc(-c2cccc3c2OCC[C@H]2CNCCN32)c1` [Example 239, (4aS)-8-[3-(methylsulfonyl)phenyl]-2,3,4,4a,5,6-hexahydro-1H-pyrazino[2,1-d][1,5]benzoxazepine], the concentration giving a half-maximal response (EC50) is over 10 µM in experiment [1] (setting [5]) and 0.04 µM in experiment [2] (setting [6]). Further, the Emax in experiment [2] (setting [7]) was found to be 105%.

Turning to `CCC(C)Oc1ccc2c(c1)N1CCNC[C@@H]1CC(=O)N2` (stereo partly drawn) [Example 174, (4aS)-10-sec-butoxy-1,2,3,4,4a,5-hexahydropyrazino[1,2-a][1,5]benzodiazepin-6(7H)-one], the figures for the EC50 in experiment [1] (setting [5]) and in experiment [2] (setting [6]) were over 10 µM and 0.007 µM, respectively. Besides, in experiment [2] (setting [7]), the Emax is over 120%.

Regarding `C[C@@H](Cc1ccccc1)Oc1ccc2c(c1)N1CCNC[C@@H]1CC(=O)N2` [Example 163, (4aS)-10-{[(2S)-1-phenylpropan-2-yl]oxy}-1,2,3,4,4a,5-hexahydropyrazino[1,2-a][1,5]benzodiazepin-6(7H)-one], the values for the EC50 in experiment [1] (setting [5]) and in experiment [2] (setting [6]) were over 10 µM and 0.07 µM, respectively. For the same compound, the Emax in experiment [2] (setting [7]) was over 120%.

For the compound `CCc1cccc(-c2ccc3c(c2)N2CCNCC2CC(=O)N3)c1` (stereo not shown) [Example 91, 10-(3-ethylphenyl)-1,2,3,4,4a,5-hexahydropyrazino[1,2-a][1,5]-benzodiazepin-6(7H)-one], the concentration for a half-maximal effect (EC50) in experiment [1] (setting [5]) was over 10 µM; in experiment [2] (setting [6]), 0.01 µM. Moreover, the Emax in experiment [2] (setting [7]) is over 120%.

For `Oc1ccccc1-c1ccc2c(c1)N1CCNC[C@@H]1CCO2` [Example 200, 2-[(4aS)-2,3,4,4a,5,6-hexahydro-1H-pyrazino[2,1-d][1,5]benzoxazepin-10-yl]phenol], the EC50 in experiment [1] (setting [5]) is over 10 µM; in experiment [2] (setting [6]) it was 0.01 µM. Besides, the Emax in experiment [2] (setting [7]) was over 120%.

Consider `O=C1CC2CNCCN2c2cc(-c3cccc(OC(F)(F)F)c3)ccc2N1` (stereo not shown) [Example 93, 10-[3-(trifluoromethoxy)phenyl]-1,2,3,4,4a,5-hexahydropyrazino[1,2-a][1,5]benzodiazepin-6(7H)-one], for which the EC50 in experiment [1] (setting [5]) is over 10 µM; in experiment [2] (setting [6]) it was 0.007 µM. For the same compound, in experiment [2] (setting [7]), the Emax is over 120%.

As to `Fc1cccc2c1OCC[C@@H]1CNCCN21` [Example 270, (4aR)-8-fluoro-2,3,4,4a,5,6-hexahydro-1H-pyrazino[2,1-d][1,5]benzoxazepine], the EC50 in experiment [1] was found to be 0.04 µM; in experiment [2] it was 0.0009 µM. In addition, the Emax was determined as 80% in experiment [1] (setting [3]) and 90% in experiment [2] (setting [4]).

Regarding `Fc1ccc2c(c1)OCC[C@H]1CNCCN21` [Example 136, (4aS)-9-fluoro-2,3,4,4a,5,6-hexahydro-1H-pyrazino[2,1-d][1,5]benzoxazepine], the EC50 in experiment [1] turned out to be 0.1 µM; in experiment [2], 0.002 µM. The Emax is 20% in experiment [1] (setting [3]) and over 120% in experiment [2] (setting [4]).

In the case of `FCCN1CCN2c3ccccc3OCC[C@@H]2C1` [Example 269, (4aR)-3-(2-fluoroethyl)-2,3,4,4a,5,6-hexahydro-1H-pyrazino[2,1-d][1,5]benzoxazepine], the Emax in experiment [1] (setting [3]) is 50%; in experiment [2] (CHO-K1, read-out: Emax (%), 5-HT2c Agonist Activity) it was 90%. Further, the EC50 in experiment [1] (setting [5]) worked out at 0.6 µM; in experiment [2] (setting [6]), 0.09 µM.

As to `COc1ccc2c(c1)OCC[C@H]1CNCCN21` [Example 134, (4aS)-9-methoxy-2,3,4,4a,5,6-hexahydro-1H-pyrazino[2,1-d][1,5]benzoxazepine], the EC50 is over 10 µM in experiment [1] (read-out: EC50 (μM), 5-HT2B Agonist Activity, CHO-K1 cells over-expressing 5HT2B, calcium flux) and 0.05 µM in experiment [2] (read-out: EC50 (μM), 5-HT2c Agonist Activity, CHO-K1 cells over-expressing 5HT2C, calcium flux). The “Emax (%), 5-HT2c Agonist Activity” value in experiment [2] (CHO-K1 cells, percentage relative to the effect of serotonin) is listed as 100%.

Regarding `O=C1CC2CNCCN2c2cc(COc3ccc(F)cc3)ccc2N1` (stereo not shown) [Example 115, 10-[(4-fluorophenoxy)methyl]-1,2,3,4,4a,5-hexahydropyrazino[1,2-a][1,5]benzodiazepin-6(7H)-one], the EC50 in experiment [1] (setting [5]) was over 10 µM; in experiment [2] (setting [6]), 0.2 µM. Moreover, the Emax in experiment [2] (setting [7]) was over 120%.

As to `CC(O)c1ccc(-c2cccc3c2OCC[C@H]2CNCCN32)cc1` (stereo partly drawn) [Example 234, 1-{4-[(4aS)-2,3,4,4a,5,6-hexahydro-1H-pyrazino[2,1-d][1,5]benzoxazepin-8-yl]phenyl}ethanol], the concentration for a half-maximal effect (EC50) was found to be 0.3 µM in experiment [1] (setting [5]) and 0.01 µM in experiment [2] (setting [6]). The Emax is 10% in experiment [1] (setting [8]) and 105% in experiment [2] (setting [7]).

As for `O=C1CC2CNCCN2c2cc(-c3cccc(C(F)(F)F)c3)ccc2N1` (stereo not shown) [Example 90, 10-[3-(trifluoromethyl)phenyl]-1,2,3,4,4a,5-hexahydropyrazino[1,2-a][1,5]benzodiazepin-6(7H)-one], the EC50 was over 10 µM in experiment [1] (setting [5]) and 0.02 µM in experiment [2] (setting [6]). Moreover, the Emax in experiment [2] (setting [7]) is over 120%.

On to `Cc1cccc(-c2ccc3c(c2)N2CCNC[C@@H]2CCO3)c1` [Example 190, (4aS)-10-(3-methylphenyl)-2,3,4,4a,5,6-hexahydro-1H-pyrazino[2,1-d][1,5]benzoxazepine], for which the results for the EC50 in experiment [1] (setting [5]) and in experiment [2] (setting [6]) were over 10 µM and 0.02 µM, respectively. For the same compound, the maximal effect (Emax) in experiment [2] (setting [7]) was over 120%.

Turning to `CC(=O)c1ccccc1-c1ccc2c(c1)N1CCNC[C@@H]1CCO2` [Example 197, 1-{2-[(4aS)-2,3,4,4a,5,6-hexahydro-1H-pyrazino[2,1-d][1,5]benzoxazepin-10-yl]phenyl}ethanone], the EC50 in experiment [1] (setting [5]) was 1 µM; in experiment [2] (setting [6]), 0.07 µM. Moreover, the Emax was 15% in experiment [1] (setting [8]) and over 120% in experiment [2] (setting [7]).
